In ChEMBL document CHEMBL3758074, “Structure-activity relationship study of 4-(thiazol-5-yl)benzoic acid derivatives as potent protein kinase CK2 inhibitors” (Bioorg Med Chem, 2016):
Values after ≈ are worked out from the molar mass of the structure shown.

Legend:
[1] = molecular target: Casein kinase II subunit alpha (Homo sapiens, UniProt P68400); experiment: Inhibition of GST-tagged human CK2alpha (1 to 391 residues) using CK2tide as substrate incubated for 1 hr by off-chip mobility shift assay
[2] = Thermodynamic solubility of compound in 67 mM phosphate buffer at pH 7.4 after 24 hrs by HPLC analysis; format: physicochemical; details: read-out: Therm_solubility
[3] = test system: A549; experiment: Cytotoxicity against human A549 cells after 72 hrs by MTS assay; format: functional; details: A549, 72 h
[4] = molecular target: Casein kinase II subunit alpha' (Homo sapiens, UniProt P19784); experiment: Inhibition of GST-tagged human CK2alpha' (1 to 350 residues) using CK2tide as substrate incubated for 1 hr by off-chip mobility shift assay

With COc1ccc(C(=O)Nc2ncc(-c3ccc(C(=O)O)cc3)s2)cc1 the IC50 [1] was 20 nM, the solubility thermodynamic at 24 h [2] was 2.7 µg/mL (≈ 7.62 µM) and the CC50 [3] was 8.5 µM. The IC50 [4] was 11 nM.
In the case of COc1ccc(C(=O)Nc2ncc(-c3ccc(C(=O)O)cc3OCc3ccccc3)s2)cc1, the CC50 [3] is reported as 1.5 µM.
In the case of COc1ccc(C(=O)Nc2ncc(-c3ccc(C(=O)O)nn3)s2)cc1, the solubility thermodynamic at 24 h [2] is reported as 1020 µg/mL (≈ 2880 µM) and the CC50 [3] is reported as over 30 µM.
COc1ccc(C(=O)Nc2ncc(-c3ccc(C(=O)O)c4ccccc34)s2)cc1 showed a CC50 [3] of over 30 µM.
In the case of COc1ccc(C(=O)Nc2ncc(-c3ccc(C(=O)O)cc3Oc3ccccc3)s2)cc1, the CC50 [3] is reported as 4.7 µM.
For COc1ccc(C(=O)Nc2ncc(-c3ccc(C(=O)O)cc3OCc3ccccn3)s2)cc1, the CC50 [3] was over 30 µM.
COc1ccc(C(=O)Nc2ncc(-c3ccc(C(=O)O)cc3OCc3ccccc3Br)s2)cc1 showed a CC50 [3] of 1.5 µM.
Compound COc1ccc(C(=O)Nc2ncc(-c3ccc(C(=O)O)cc3OCc3ccccc3OC)s2)cc1 has a solubility thermodynamic at 24 h [2] of 1.4 µg/mL (≈ 2.85 µM) and a CC50 [3] of 2 µM.
With COc1ccc(C(=O)Nc2ncc(-c3ccc(C(=O)O)cc3OCc3ccc(Cl)cc3)s2)cc1 the CC50 [3] was 2.5 µM.
COc1ccc(C(=O)Nc2ncc(-c3ccc(C(=O)O)cc3OCc3ccccc3C#N)s2)cc1 showed a CC50 [3] of over 30 µM.
COc1ccc(C(=O)Nc2ncc(-c3ccc(C(=O)O)cc3OCc3cccc(Cl)c3)s2)cc1 showed a CC50 [3] of 18.7 µM.
With COc1ccc(C(=O)Nc2ncc(-c3ccc(C(=O)O)cc3OCc3ccccc3Cl)s2)cc1 the CC50 [3] was 1.6 µM.
For COc1ccc(C(=O)Nc2ncc(-c3ccc(C(=O)O)cn3)s2)cc1, the solubility thermodynamic at 24 h [2] was 90 µg/mL (≈ 253 µM) and the CC50 [3] was over 30 µM.
Work on COc1ccc(C(=O)Nc2ncc(-c3ccc(C(=O)O)cc3OCc3ccccc3F)s2)cc1 yielded a CC50 [3] of 3.3 µM.
For COc1ccc(C(=O)Nc2ncc(-c3ccc(C(=O)O)cc3OCCc3ccccc3)s2)cc1, the CC50 [3] was 3.6 µM.
Work on COc1ccc(C(=O)Nc2ncc(-c3ccc(C(=O)O)nc3)s2)cc1 yielded a solubility thermodynamic at 24 h [2] of 14 µg/mL (≈ 39.4 µM) and a CC50 [3] of over 30 µM.
Compound COc1ccc(C(=O)Nc2ncc(-c3ccc(C(=O)O)cc3COc3ccccc3)s2)cc1 has a CC50 [3] of 21.9 µM.
O=C(O)c1ccc2c(c1)nc(Nc1cccc(Cl)c1)c1ccncc12 [SILMITASERTIB] showed a solubility thermodynamic at 24 h [2] of 57 µg/mL (≈ 163 µM) and a CC50 [3] of 9.9 µM.
